Measured values reported in ChEMBL document CHEMBL3758109, “A novel triazole derivative of betulinic acid induces extrinsic and intrinsic apoptosis in human leukemia HL-60 cells” (Eur J Med Chem, 2016).
Calls of active or inactive are those of the source. The calls are words filed in the database; no cut-off is given here.

Key:
[1] = Cell cycle arrest in human HL60 cells assessed as accumulation at G1 phase at 5 uM after 24 hrs by propidium iodide staining based flow cytometry (reference value: 46%); assay type: functional; conditions: HL-60
HL-60 [2] = experiment: Induction of apoptosis in human HL60 cells assessed as activation of caspase- 6 at 5 to 20 uM after 24 hrs by Western blot; assay type: functional, cell-based
[3] = Cytotoxicity against human HL60 cells assessed as cell growth inhibition at 10 uM after 48 hrs by MTT assay; assay type: functional; conditions: HL-60, 48 h, read-out: GI
HL-60 [4] = experiment: Induction of apoptosis in human HL60 cells assessed as down regulation of Bcl-2 after 24 hrs by Western blot; assay type: functional, cell-based
HL-60 [5] = experiment: Induction of apoptosis in human HL60 cells at 10 uM after 24 hrs by propidium iodide staining based flow cytometry (reference value: 3%); assay type: functional
[6] = Cytotoxicity against human PC3 cells assessed as cell growth inhibition at 10 uM after 48 hrs by MTT assay; assay type: functional; conditions: PC-3, 48 h, read-out: GI
HL-60 [7] = experiment: Induction of apoptosis in human HL60 cells assessed as up regulation of Bax after 24 hrs by Western blot; assay type: functional, cell-based
HL-60 [8] = experiment: Induction of apoptosis in human HL60 cells assessed as activation of caspase- 7 at 5 to 20 uM after 24 hrs by Western blot; assay type: functional, cell-based
HL-60 [9] = experiment: Induction of mitochondrial potential loss in human HL60 cells at 5 uM after 24 hrs by rhodamine-123 staining based flow cytometry (reference value: 3%); assay type: functional
A549 [10] = experiment: Cytotoxicity against human A549 cells assessed as cell growth inhibition at 10 uM after 48 hrs by MTT assay; assay type: functional; conditions: A549, 48 h, read-out: GI
HL-60 [11] = experiment: Induction of mitochondrial potential loss in human HL60 cells after 24 hrs by rhodamine-123 staining based flow cytometry (reference value: 3%); assay type: functional, cell-based
HL-60 [12] = experiment: Induction of apoptosis in human HL60 cells at 5 uM after 24 hrs by propidium iodide staining based flow cytometry (reference value: 3%); assay type: functional
HL-60 [13] = experiment: Induction of apoptosis in human HL60 cells assessed as decrease in Bcl-2/Bax ratio after 24 hrs by Western blot; assay type: functional, cell-based
[14] = Cytotoxicity against human MIAPaCa2 cells assessed as cell growth inhibition after 48 hrs by MTT assay; assay type: functional, cell-based; conditions: MIA PaCa-2, 48 h
HL-60 [15] = experiment: Induction of apoptosis in human HL60 cells assessed as activation of procaspase- 8 at 5 to 20 uM after 24 hrs by Western blot; assay type: functional, cell-based
[16] = Cytotoxicity against human PC3 cells assessed as cell growth inhibition after 48 hrs by MTT assay; assay type: functional, cell-based; conditions: PC-3, 48 h
HL-60 [17] = experiment: Induction of apoptosis in human HL60 cells at 20 uM after 24 hrs by propidium iodide staining based flow cytometry (reference value: 3%); assay type: functional
[18] = Cell cycle arrest in human HL60 cells assessed as accumulation at G1 phase at 20 uM after 24 hrs by propidium iodide staining based flow cytometry (reference value: 46%); assay type: functional; conditions: HL-60
[19] = Cytotoxicity against human HL60 cells assessed as cell growth inhibition after 48 hrs by MTT assay; assay type: functional, cell-based; conditions: HL-60, 48 h
[20] = Cell cycle arrest in human HL60 cells assessed as accumulation at S phase at 20 uM after 24 hrs by propidium iodide staining based flow cytometry (reference value: 48%); assay type: functional; conditions: HL-60
HL-60 [21] = experiment: Induction of mitochondrial potential loss in human HL60 cells at 20 uM after 24 hrs by rhodamine-123 staining based flow cytometry (reference value: 3%); assay type: functional
HL-60 [22] = experiment: Induction of apoptosis in human HL60 cells assessed as cleavage of PARP-1 at 5 to 20 uM after 24 hrs by Western blot; assay type: functional, cell-based
[23] = Cell cycle arrest in human HL60 cells assessed as accumulation at S phase at 5 uM after 24 hrs by propidium iodide staining based flow cytometry (reference value: 48%); assay type: functional; conditions: HL-60
[24] = Cell cycle arrest in human HL60 cells assessed as accumulation at G1 phase at 10 uM after 24 hrs by propidium iodide staining based flow cytometry (reference value: 46%); assay type: functional; conditions: HL-60
HL-60 [25] = experiment: Induction of mitochondrial potential loss in human HL60 cells at 10 uM after 24 hrs by rhodamine-123 staining based flow cytometry (reference value: 3%); assay type: functional
HL-60 [26] = experiment: Induction of apoptosis in human HL60 cells assessed as activation of procaspase- 9 at 5 to 20 uM after 24 hrs by Western blot; assay type: functional, cell-based
[27] = Cell cycle arrest in human HL60 cells assessed as accumulation at G2/M phase at 5 uM after 24 hrs by propidium iodide staining based flow cytometry (reference value: 6%); assay type: functional; conditions: HL-60
[28] = Cell cycle arrest in human HL60 cells assessed as accumulation at G2/M phase at 10 uM after 24 hrs by propidium iodide staining based flow cytometry (reference value: 6%); assay type: functional; conditions: HL-60
[29] = Cytotoxicity against human MIAPaCa2 cells assessed as cell growth inhibition at 10 uM after 48 hrs by MTT assay; assay type: functional; conditions: MIA PaCa-2, 48 h, read-out: GI
[30] = Cell cycle arrest in human HL60 cells assessed as accumulation at S phase at 10 uM after 24 hrs by propidium iodide staining based flow cytometry (reference value: 48%); assay type: functional; conditions: HL-60
HL-60 [31] = experiment: Induction of apoptosis in human HL60 cells assessed as activation of caspase- 3 at 5 to 20 uM after 24 hrs by Western blot; assay type: functional, cell-based
[32] = Cell cycle arrest in human HL60 cells assessed as accumulation at G2/M phase at 20 uM after 24 hrs by propidium iodide staining based flow cytometry (reference value: 6%); assay type: functional; conditions: HL-60
A549 [33] = experiment: Cytotoxicity against human A549 cells assessed as cell growth inhibition after 48 hrs by MTT assay; assay type: functional, cell-based; conditions: A549, 48 h

C=C(C)[C@@H]1CC[C@]2(C(=O)OCc3cn(-c4ccc(F)cc4)nn3)CC[C@]3(C)[C@H](CC[C@@H]4[C@@]5(C)CC[C@H](O)C(C)(C)[C@@H]5CC[C@]43C)[C@@H]12
Activity [1]: 48% | Activity (HL-60 [2]): Active | inhibition of growth at 10 µM [3]: 69% | Activity (HL-60 [4]): Dose-dependent effect | Activity (HL-60 [5]): 7% | inhibition of growth at 10 µM [6]: 62% | Activity (HL-60 [7]): Active | Activity (HL-60 [8]): Active | Activity (HL-60 [9]): 7% | inhibition of growth at 10 µM (A549 [10]): 63% | Activity (HL-60 [11]): Dose-dependent effect | Activity (HL-60 [12]): 5% | Activity (HL-60 [13]): Active | IC50 [14]: 5 µM | Activity (HL-60 [15]): Active | IC50 [16]: 7 µM | Activity (HL-60 [17]): 14% | Activity [18]: 90% | IC50 [19]: 7 µM | Activity [20]: 9% | Activity (HL-60 [21]): 27% | Activity (HL-60 [22]): Active | Activity [23]: 47% | Activity [24]: 53% | Activity (HL-60 [25]): 18% | Activity (HL-60 [26]): Active | Activity [27]: 5% | Activity [28]: 3% | inhibition of growth at 10 µM [29]: 75% | Activity [30]: 44% | Activity (HL-60 [31]): Active | Activity [32]: 1% | IC50 (A549 [33]): 7 µM
